Experimental data taken from patent US6323369A, “Substituted cycloheptenes, their preparation and use” (Gruenenthal GmbH, priority 1998, dated 2001).
Where a name gives a salt, the structure may show the parent alone.

Tests used:
[1] = system: phenylquinone-induced writhing in mice; test: Anti-nociceptive activity in phenylquinone-induced writhing test in mice; assay type: in vivo, mouse (male NMRI); conditions: Mus musculus, iv, 10 min; i.v., phenylquinone i.p. 10 min after compound, writhing counted 5-20 min after phenylquinone; 10 animals per dose; 95% confidence range in parentheses
Description: The anti-nociceptive effectiveness was tested in phenylquinone-induced writhing in mice, modified by I. C.Hendershot, J. Forsaith, J. Pharmacol. Exp. Ther. 125, 237-240 (1959). Here, male NMRI mice with a weight of 25-30 g were used. 10 min after intravenous administration of a compound according to the invention, 0.3 ml/mouse of a 0.02% strength aqueous solution of phenylquinone was administered intraperitoneally to groups of 10 animals per substance dose (phenylbenzoquinone, Sigma, Deisenhofen; solution prepared by adding 5% ethanol and storing in a water bath at 45° C.). The animals were placed individually in observation cages. Using a push button counter,the number of pain-induced stretching movements (so-called writhing reactions=straightening the body while stretching out the back extremities) was counted 5-20 min after administration of the phenylquinone. From the dose-dependent decrease in writhing reactions as compared with groups of animals tested in parallel to which no compounds according to the invention had been administered, the ED50 values for the writhing reaction were calculated using regression analysis (evaluation programme Martens EDV service, Eckental).

δ-opiate receptor = biological target: T1, δ-opiate receptor (Rattus norvegicus, UniProt P33533); test: δ-opiate receptor bonding test ((3H)-2-D-ala-deltorphin II displacement); assay type: binding, rat (male Wistar); conditions: rat brain membrane homogenate, 1 nmol/l (3H)-2-D-ala-deltorphin II, 90 min at 37° C., pH 7.4; mean ± standard deviation of 3 independent trials
T1 construct: performed in brain membrane homogenates; from tissue; host or cells: rat brain without cerebellum, pons and medulla oblongata, male Wistar rats (membrane homogenate)
Description: Tests on determining the affinity of compounds of the formula I according to the invention for the δ-opiate receptor were performed in brain membrane homogenates (homogenate from rat brain without the cerebellum, pons and medulla oblongata from male Wistar rats). In this case, freshly prepared rat brain was homogenised each time, cooled by ice, in 50 mmol/l of tris-HCl (tris-(hydroxymethyl)-aminomethane hydrochloride) (pH 7.4) and centrifuged for 10 min at 5,000 g and 4° C. After decanting and discarding the supernatant liquid, the membrane sediment was again taken up in 50 mmol/l of tris-HCl (pH 7.4) and homogenised and the homogenate was then centrifuged for 20 min at 20,000 g and 4° C. This wash stage was repeated once more. Then the supernatant liquid was decanted and the membrane sediment was homogenised in cold 50 mmol/l tris-HCl, 20% glycerol (w:v), 0.01% bacitracin (w/v) (pH 7.4) and frozen in portions until tested. For the receptor bonding tests, the portions were thawed out and diluted 1:10 with the bonding test buffer. A 50 mmol/l tris-HCl, 5 mmol/l MgCl2 (pH 7.4) supplemented with 0.1% (w:v) of bovine serum albumin was used as buffer, and 1 nmol/l of (^3 H)-2-D-ala-deltorphin II was used as a radioactive ligand in the bonding test. The proportion of non-specific bonding was determined in the presence of […] of naloxon. In further batches, the compounds according to the invention were added in a number of concentrations and the displacement of the radioactive ligand from its specific bond was determined. Three identical batches were incubated for 90 min at 37° C. and then harvested in order to determine the radioactive ligand bonded to the membrane homogenate by means of filtration through a glass fibre filter (GF/B). The radioactivity of the glass fibre filter discs was measured in a beta-counter by adding a scintillator. The affinity of compounds according to the invention for the δ-opiate receptor was calculated as IC50 in accordance with the law of mass action using non-linear regression. The K values in table 1 are given as the average value plus or minus the standard deviation of 3 quite independent trials.

T1 sequence (P33533 whole entry): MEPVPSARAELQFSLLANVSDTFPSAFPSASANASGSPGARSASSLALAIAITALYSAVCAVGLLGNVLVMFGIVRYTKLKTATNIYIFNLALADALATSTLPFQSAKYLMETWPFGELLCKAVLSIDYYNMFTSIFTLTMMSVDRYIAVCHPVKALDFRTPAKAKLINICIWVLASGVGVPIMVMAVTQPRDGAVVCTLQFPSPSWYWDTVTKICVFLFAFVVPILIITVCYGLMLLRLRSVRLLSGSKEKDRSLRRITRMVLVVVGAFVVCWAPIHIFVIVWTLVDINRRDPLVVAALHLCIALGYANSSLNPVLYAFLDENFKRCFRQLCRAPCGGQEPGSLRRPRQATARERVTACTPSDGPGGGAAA

Structure (SMILES) | ED50 [1] | Ki (δ-opiate receptor)
CN(C)CC1=C(c2cccc(O)c2)CC(c2cccc(O)c2)CCC1.Cl (stereo not drawn) [Example 1, 3-[2-dimethylaminomethyl-6-(3-hydroxyphenyl)-cyclohept-1-enyl]-phenol hydrochloride] | 3.31 mg/kg | 0.0014 ± 0.0008 µM
CN(C)CC1=C(c2cccc(O)c2)CC(c2ccc(Cl)cc2)CCC1.Cl (stereo not drawn) [Example 2a, 3-[6-(4-chlorophenyl)-2-dimethylaminomethyl-cyclohept-1-enyl]-phenol hydrochloride] | 7.4 mg/kg | 0.0303 ± 0.0047 µM
CN(C)CC1=C(c2cccc(O)c2)CC(c2ccccc2)CCC1.Cl (stereo not drawn) [Example 2b, 3-(2-dimethylaminomethyl-6-phenyl-cyclohept-1-enyl)-phenol hydrochloride] | 4.48 mg/kg | 0.0038 ± 0.0002 µM
CN(C)CC1=C(c2cccc(O)c2)CC(c2cccc3ccccc23)CCC1.Cl (stereo not drawn) [Example 2c, 3-(2-dimethylaminomethyl-6-naphth-1-yl-cyclohept-1-enyl)-phenol hydrochloride] | 5.29 mg/kg | 0.0247 ± 0.0024 µM
CN(C)CC1=C(c2cccc(O)c2)CC(c2ccc3ccccc3c2)CCC1.Cl (stereo not drawn) [Example 2d, 3-(2-dimethylaminomethyl-6-naphth-2-yl-cyclohept-1-enyl]-phenol hydrochloride] | 7.56 mg/kg | 0.0315 ± 0.0059 µM
CN(C)CC1=C(c2cccc(O)c2)CC(c2ccc(O)cc2)CCC1.Cl (stereo not drawn) [Example 2e, 3-[2-dimethylaminomethyl-6-(4-hydroxyphenyl)-cyclohept-1-enyl]-phenol hydrochloride] | 2.25 mg/kg | 0.0152 ± 0.0043 µM
Cc1cccc(C2CCCC(CN(C)C)=C(c3cccc(O)c3)C2)c1 (stereo not drawn) [Example 2f, 3-(2-dimethylaminomethyl-6-m-toluyl-cyclohept-1-enyl]-phenol hydrochloride] |  | 0.0032 ± 0.0008 µM
CN(C)CC1=C(c2cccc(O)c2)CC(c2cccc(C(C)(C)C)c2)CCC1 (stereo not drawn) [Example 2g, 3-[6-(3-tert-butyl-phenyl)-2-dimethylaminomethyl-cyclohept-1-enyl]-phenol hydrochloride] |  | 0.0175 ± 0.0052 µM
CN(C)CC1=C(c2cccc(O)c2)CC(c2ccc3cc(O)ccc3c2)CCC1 (stereo not drawn) [Example 2h, hydrochloride] | 6.22 mg/kg | 0.0194 ± 0.0047 µM
CN(C)CC1=C(c2cccc(O)c2)CC(c2ccc(O)c(F)c2)CCC1.Cl (stereo not drawn) [Example 2i, 3-[2-dimethylaminomethyl-6-(3-fluoro-4-hydroxyphenyl)-cyclohept-1-enyl]-phenol hydrochloride] | 0.89 mg/kg | 0.0146 ± 0.0022 µM
CN(C)CC1=C(c2cccc(O)c2)CC(c2ccccc2O)CCC1 (stereo not drawn) [Example 2j, 3-[2-dimethylaminomethyl-6-(2-hydroxyphenyl)-cyclohept-1-enyl]-phenol hydrochloride] |  | 0.0247 ± 0.0031 µM
CN(C)CC1=C(c2cccc(O)c2)CC(C2CCCCC2)CCC1 (stereo not drawn) [Example 2k, 3-(6-cyclohexyl-2-dimethylaminomethyl-cyclohept-1-enyl)-phenol hydrochloride] |  | 0.0103 ± 0.0022 µM
CN(C)CC1=C(c2cccc(O)c2)CC(CC2CCCCC2)CCC1 (stereo not drawn) [Example 2l, 3-(6-cyclohexylmethyl-2-dimethylaminomethyl-cyclohept-1-enyl)-phenol hydrochloride] |  | 0.0286 ± 0.0058 µM
CN(C)CC1=C(c2cccc(O)c2)CC(Cc2ccccc2)CCC1 (stereo not drawn) [Example 2m, 3-(6-benzyl-2-dimethylaminomethyl-cyclohept-1-enyl)-phenol hydrochloride] |  | 0.0102 ± 0.001 µM
CN(C)CC1=C(c2cccc(O)c2)CC(Cc2cccc(O)c2)CCC1 (stereo not drawn) [Example 2n, 3-[2-dimethylaminomethyl)-6-(3-hydroxybenzyl)-cyclohept-1-enyl]-phenol hydrochloride] |  | 0.0074 ± 0.0022 µM
CN(C)CC1=C(c2cccc(O)c2)CC(CCc2ccccc2)CCC1 (stereo not drawn) [Example 2o, 3-(2-dimethylaminomethyl-6-phenethyl-cyclohept-1-enyl)-phenol hydrochloride] |  | 0.0306 ± 0.0105 µM
Cc1cc(C2CCCC(CN(C)C)=C(c3cccc(O)c3)C2)cc(C)c1O (stereo not drawn) [Example 2p, 3-[2-dimethylaminomethyl)-6-(3,5-dimethyl-4-hydroxyphenyl)-cyclohept-1-enyl]-phenol hydrochloride] |  | 0.0025 µM
CN(CCc1ccccc1)CC1=C(c2cccc(O)c2)CC(c2ccccc2)CCC1.Cl (stereo not drawn) [Example 3, 3-{2-[(methylphenethylamino)-methyl]-6-phenyl-cyclohept-1-enyl}-phenol hydrochloride] | 3.4 mg/kg | 0.0083 ± 0.0033 µM
